# Data published in paper PMC12406255, “Engineering Peptide Modulators for T‑Cell Migration by Structural Scaffold Matching” (Journal of Medicinal Chemistry, 2025).
# Positions of bridges follow the written chain, without caps; N, C: chain ends. Non-standard residues stand in square brackets, D forms with d. Residues, ends and D or L forms follow the SMILES beside them. Nle = CCCC[C@H](N)C(=O)O
# What was measured:
# [1] = Serum stability assay; format: in vitro ADME; conditions: human serum of healthy donors, lipids removed by centrifugation, 37 °C, peptide 30-60 μM from 10-fold stock in PBS, followed over 48 h, urea/TFA quench, analytical RP-HPLC peak area vs time 0, one-phase decay fit; mean ± SD, n = 2 (pepitem n = 5); read-out: Serum t 1/2 (converted)
# Experimental: Stability of peptides in human serum was measured similarly to that previously described. In short, fresh blood from healthy donors was collected in serum collection tubes (Clot Activator Tube, Becton Dickinson, Plymouth, United Kingdom, […]) and incubated at 4 °C for 2 h to allow blood clotting. The serum was separated by centrifugation at 1000 × g for 10 min. To remove lipids from the serum, an additional centrifugation step was performed at 15,000 × g for 15 min at 4 °C, after which the serum was used for the stability assays. For this, the serum was prewarmed for 10 min at 37 °C before the addition of the test compounds. Peptides were prepared at a 10-fold concentration in PBS and diluted to a final concentration between 60 and 30 μM with the serum. The serum-peptide reaction mix was incubated at 37 °C, and 40 μL aliquots were taken at the indicated time points. To stop the reaction, samples were mixed with 40 μL of 6 M urea for 10 min on ice, followed by precipitation of serum proteins by the addition of 40 μL of 20% TFA and incubation for at least 10 min on ice. The precipitate was pelleted at 15,000 × g for 15 min, and 90 μL of the supernatant was freeze-dried. The dry material was resuspended in HPLC solvent A (0.1% TFA in ddH2O). Peptide quantification was performed using analytical HPLC. The remaining peptide relative to the starting point (time point 0) was calculated by peak integration to determine the area under the peak at the designated time points and further calculated in comparison to time point 0 min, which was set as 100%. To calculate the half-life of the peptides in human serum, data points were fitted with a one-phase decay equation.
# [2] = test system: CD3+ lymphocytes; assay: cells; format: cell-based, human; conditions: for % Inhibition of cell migration compared to control, CD3+: normalized to untreated control, mean ± SEM of 4-6 experiments
# Experimental: 1 Transwell-based migration assay to study lymphocyte transendothelial migration. (A) The general principle of the transwell migration assay is depicted. Endothelial cells (EC) are seeded in transwell inserts and are incubated for 2 days to form an EC monolayer. On the day before the assay, the ECs are cytokine-stimulated to induce the expression of adhesion molecules. In the migration assay, human peripheral blood mononuclear cells (PBMC) are placed into the donor compartment of the transwell setup. After 4 h of incubation time, the migrated cells are harvested from the receiver compartment, stained with fluorescent antibodies and counted using flow cytometry. (B) PBMCs were preincubated with S1P for 1.5 h and then transferred into the donor compartment on top of the EC monolayer. […] Data are shown as mean ± SD of 3 to 5 independent experiments.
# Transwell migration assays were performed similarly as published previously. HMEC-1 cells were seeded at a density of 75,000 cells per well in transwell inserts. Three days after cell seeding, the medium was changed, and the cells were stimulated with 100 ng/mL TNF-α and 20 ng/mL IFN-γ for 16–18 h. On the day of the assay, cells were washed with migration medium (serum-free RPMI medium supplemented with 0.1% BSA) to remove residual cytokines and starved for at least 1 h at 37 °C in migration medium. PBMC were starved for at least 1.5 h in migration medium before addition to the EC. For S1P and lifitegrast-treated samples, the PBMC were preincubated for at least 1.5 h at 37 °C with the ligands before addition to the EC. Pepitem and other peptides were added onto the EC monolayer and preincubated for 15–30 min at 37 °C before the addition of the PBMC. 200,000 PBMC per well were added directly on top of the EC prestimulated with pepitem or other peptides to reach a final volume of 150 μL in the donor compartments. The receiver compartments of the wells were filled with 600 μL RPMI with 20% FBS. After 4 h of migration at 37 °C, the receiver compartment with the migrated cells was collected. The migrated cells were stained with the indicated antibodies: CD3-APC (clone: OKT3, lot: B400127), CD4-PE (clone: OKT4. lot: B379180), CD8-FITC (clone: HIT8a, lot: B370193) from Biolegend and CD3-VioGreen (clone: REA613, lot: 5240502518), CD45RO-FITC (clone: REA611, lot: 5240502519), CD4-PerCP-Vio700 (clone: REA623, lot: 5240506702), CXCR3 PE-Vio615 (clone: REA232, lot: 5240506722), CD196-APC (clone: REA190, lot: 5240506717), CD8-APC-Vio770 (clone: REA734, lot: 5240303993) and CD45RO-PEVio616 (clone: REA611, lot: 5231102514) from Miltenyi Biotec (Bergisch Gladbach, Germany) and counted using precision counting beads (Biolegend) on a CytoflexS flow cytometer (BeckmanCoulter). Data was analyzed using CytExpert (Version 2.4). T cells were gated as CD3^+ cells, T cell subsets were gated as CD4^+ (CD3^+, CD4^+), CD8^+ (CD3^+, CD8^+), memory CD4^+ (CD3^+, CD4^+, CD45RO^+), memory CD8^+ (CD3^+, CD8^+, CD45RO^+) and Th1 cells (CD3^+, CD4^+, CXCR3^+, CCR6^–).
# Data were analyzed using GraphPad Prism software. EC50 values were calculated by three-parameter nonlinear regression analysis. For this, the data points were normalized to the number of migrated cells in untreated (buffer) control samples (100%), and the regression was fitted with the top constraint to 100 and the slope fixed to 1. Statistical significance is indicated in graphs as n.s. not significant, * p < 0.05; ** p < 0.01; *** p < 0.001. The statistical tests used are indicated in the respective figure captions.
smiles,measurement,setting,value
"CCCC[C@@H]1NC(=O)[C@H](C(C)C)NC(=O)[C@H](CCCCN)NC(=O)[C@@H](NC(=O)[C@H](CCC(N)=O)NC(=O)[C@H](CCC(=O)O)NC(C)=O)CSSC[C@@H](C(=O)N[C@@H](CCC(=O)O)C(=O)N[C@@H](CCCCN)C(N)=O)NC(=O)[C@H](CC(N)=O)NC(=O)[C@H](CC(=O)O)NC(=O)[C@H](CC(C)C)NC(=O)[C@@H]2CSSC[C@H](NC1=O)C(=O)N[C@@H](Cc1ccc(O)cc1)C(=O)N[C@@H](C)C(=O)N[C@@H](CCC(N)=O)C(=O)NCC(=O)N[C@@H](C)C(=O)N[C@@H](CCC(=O)O)C(=O)N[C@@H](CC(C)C)C(=O)N1CCC[C@H]1C(=O)N[C@@H](CCC(=O)O)C(=O)N[C@@H](CC(C)C)C(=O)N[C@@H](CC(C)C)C(=O)N[C@@H](CCCNC(=N)N)C(=O)N[C@@H](CCCNC(=N)N)C(=O)N2 [VhTI-pep 2] (Ac-EQCKV[Nle]CYAQGAELPELLRRCLDNCEK-NH2; disulfide 3-25, 7-21)",half-life,[1],> 48 h
same,"% Inhibition of cell migration compared to control, CD3+",[2]; 0.1 μM,28.7 ± 6.4%
same,"% Inhibition of cell migration compared to control, CD3+",[2]; 1 μM,37.2 ± 6.8%
same,EC50,"[2]; EC monolayer preincubated with peptide 15-30 min, healthy-donor PBMC added, 4 h migration, flow cytometry, mean ± SD of 3 to 5 (VhTI-pep 2: 4) independent experiments, read-out: EC50, inhibition of CD3+ lymphocyte migration",0.0106 ± 0.0165 µM
same,"maximal effect of inhibition of cell migration, CD3+ lymphocytes",[2]; from the concentration-response experiment,39.3 ± 8.7%
